The structures appear in SMILES notation. Calls of active or inactive are those of the source. The calls are words filed in the database; no cut-off is given here.

Here are results for ten compounds from ChEMBL document CHEMBL5055660, “In vitro activity of N-phenyl-1,10-phenanthroline-2-amines against tachyzoites and bradyzoites of Toxoplasma gondii” (Bioorg Med Chem, 2021).

Data set [1] has as its system Toxoplasma gondii. In words: Anti-tachyzoite activity against RFP-expressing Toxoplasma gondii RH Type 1 infected in NHDF cells assessed as inhibition of parasite proliferation measured after 72 hrs by fluorescence plate reader. The class given is functional. Conditions: RH Type 1, NHDF, read-out: ED50 (the source's name).
Data set [2] concerns Toxoplasma gondii. In words: Anti-tachyzoite activity against RFP-expressing Toxoplasma gondii RH Type 1 infected in NHDF cells assessed as inhibition of parasite proliferation measured after 96 hrs by fluorescence plate reader. The class given is functional. Conditions: RH Type 1, NHDF, read-out: ED50 (the source's name).
A short description of data set [3]: Cytotoxicity against NHDF cells assessed as reduction in cell viability measured after 96 hrs by MTS assay. The class given is cell-based. Conditions: human.
The nature of data set [4]: Selectivity index, ratio of CC50 for cytotoxicity against NHDF cells to ED50 for Anti-tachyzoite activity against RFP-expressing Toxoplasma gondii RH Type 1 infected in NHDF cells. The class given is toxicity, cell-based. Conditions: human; read-out: Selectivity Index.
For data set [5], the system named is Toxoplasma gondii. In words: Anti-tachyzoite activity against RFP-expressing Toxoplasma gondii RH Type 1 infected in NHDF cells assessed as destruction of host cells at 2.5 uM incubated for 96 hrs followed by removal of medium containing compounds and subsequent addition of fresh medium without compounds and measured after 8 days by crystal violet staining based optical microscopic analysis. The class given is functional, organism-based.

The subject of data set [6] is Toxoplasma gondii. The experiment in a line: Anti-tachyzoite activity against RFP-expressing Toxoplasma gondii RH Type 1 infected in NHDF cells assessed as destruction of host cells at 5 uM incubated for 96 hrs followed by removal of medium containing compounds and subsequent addition of fresh medium without compounds and measured after 8 days by crystal violet staining based optical microscopic analysis. The class given is functional, organism-based.

For data set [7], the system named is Toxoplasma gondii. In words: Anti-tachyzoite activity against RFP-expressing Toxoplasma gondii RH Type 1 infected in NHDF cells assessed as destruction of host cells at 1.25 uM incubated for 96 hrs followed by removal of medium containing compounds and subsequent addition of fresh medium without compounds and measured after 8 days by crystal violet staining based optical microscopic analysis. The class given is functional, organism-based.

Data set [8] relates to Toxoplasma gondii. The experiment in a line: Induction of vacuole formation in Toxoplasma gondii ESG reporter strain infected in NHDF cells assessed as increase in BAG positive vacuole number pretreated with PYR for 3 days followed by compound treatment and further incubated for 4 days. The class given is functional, organism-based. Conditions: time 4.0 day.
In data set [9] the test system is Toxoplasma gondii. The experiment in a line: Anti-bradyzoite activity against Toxoplasma gondii ESG reporter strain infected in NHDF cells assessed as cell lysis measured after 21 days. The class given is functional, organism-based. Conditions: time 21.0 day.
Data set [10] deals with Toxoplasma gondii. The experiment in a line: Anti-bradyzoite activity against Toxoplasma gondii ESG reporter strain infected in NHDF cells assessed as increase in BAG-positive vacuole number at 1.25 uM pretreated with PYR for 3 days followed by compound treatment and further incubated for 4 days. Conditions: time 4.0 day. The class given is functional, organism-based.
Data set [11] has as its system Toxoplasma gondii. The experiment in a line: Anti-bradyzoite activity against Toxoplasma gondii ESG reporter strain infected in NHDF cells assessed as induction of cyst formation measured after 5 days under alkaline condition by TEM analysis. Conditions: time 5.0 day. The class given is functional, organism-based.
Data set [12] deals with Toxoplasma gondii. In words: Anti-bradyzoite activity against Toxoplasma gondii ESG reporter strain infected in NHDF cells assessed as morphological alteration at 1.25 uM measured after 5 days under alkaline condition by TEM analysis. The class given is functional, organism-based. Conditions: time 5.0 day.
The subject of data set [13] is Toxoplasma gondii. The experiment in a line: Anti-tachyzoite activity against RFP-expressing Toxoplasma gondii RH Type 1 infected in NHDF cells assessed as inhibition of plaque formation at 1.25 uM incubated for 96 hrs followed by removal of medium containing compounds and subsequent addition of fresh medium without compounds and measured after 8 days by crystal violet staining based optical microscopic analysis. The class given is functional, organism-based.

Data set [14] deals with Toxoplasma gondii. In words: Anti-tachyzoite activity against RFP-expressing Toxoplasma gondii RH Type 1 infected in NHDF cells assessed as inhibition of plaque formation at 0.625 uM incubated for 96 hrs followed by removal of medium containing compounds and subsequent addition of fresh medium without compounds and measured after 8 days by crystal violet staining based optical microscopic analysis. The class given is functional, organism-based.

The subject of data set [15] is Toxoplasma gondii. The experiment in a line: Anti-tachyzoite activity against RFP-expressing Toxoplasma gondii RH Type 1 infected in NHDF cells assessed as inhibition of plaque formation at 1.25 uM when host cells pretreated for 3 days followed by infection and removal of medium containing compounds and subsequent addition of fresh medium without compounds and measured after 7 days by crystal violet staining based optical microscopic analysis. The class given is functional, organism-based. Conditions: time 3.0 day.

Data set [16] has as its system Toxoplasma gondii. In words: Anti-bradyzoite activity against Toxoplasma gondii ESG reporter stain infected in NHDF cells assessed as parasitic infection at 1.25 uM measured after 60 days by optical microscopic analysis. The class given is functional, organism-based. Conditions: time 60.0 day.
The subject of data set [17] is Toxoplasma gondii. The experiment in a line: Anti-tachyzoite activity against RFP-expressing Toxoplasma gondii RH Type 1 infected in NHDF cells assessed as plaque formation at 0.625 uM incubated for 96 hrs followed by removal of medium containing compounds and subsequent addition of fresh medium without compounds and measured after 8 days by crystal violet staining based optical microscopic analysis. The class given is functional, organism-based.

For data set [18], the system named is Toxoplasma gondii. The experiment in a line: Anti-bradyzoite activity against Toxoplasma gondii ESG reporter stain infected in NHDF cells assessed as viable cells recovery causing host cell lysis at 0.625 uM measured after 15 days by optical microscopic analysis. The class given is functional, organism-based. Conditions: time 15.0 day.
Data set [19] deals with Toxoplasma gondii. In words: Anti-tachyzoite activity against RFP-expressing Toxoplasma gondii RH Type 1 infected in NHDF cells assessed as destruction of host cells at 1 uM incubated for 96 hrs followed by removal of medium containing compounds and subsequent addition of fresh medium without compounds and measured after 8 days by crystal violet staining based optical microscopic analysis. The class given is functional, organism-based.

Data set [20] relates to Toxoplasma gondii. In words: Induction of stage conversion in Toxoplasma gondii ESG reporter strain at 1 uM. The class given is functional, organism-based.
The subject of data set [21] is Toxoplasma gondii. The experiment in a line: Induction of morphological changes in Toxoplasma gondii ESG reporter strain at 10 uM. The class given is functional, organism-based.
Data set [22] deals with Toxoplasma gondii. In words: Anti-tachyzoite activity against RFP-expressing Toxoplasma gondii RH Type 1 infected in NHDF cells assessed as inhibition of plaque formation at 10 uM incubated for 96 hrs followed by removal of medium containing compounds and subsequent addition of fresh medium without compounds and measured after 8 days by crystal violet staining based optical microscopic analysis. The class given is functional, organism-based.

Data set [23] has as its system Toxoplasma gondii. The experiment in a line: Anti-bradyzoite activity against Toxoplasma gondii ESG reporter stain infected in NHDF cells assessed as viable cells recovery causing host cell lysis at 1 uM measured after 15 days by optical microscopic analysis. The class given is functional, organism-based. Conditions: time 15.0 day.
Data set [24] concerns Toxoplasma gondii. In words: Anti-bradyzoite activity against Toxoplasma gondii ESG reporter stain infected in NHDF cells assessed as parasite proliferation at 10 uM measured after 30 days by optical microscopic analysis. Conditions: time 30.0 day. The class given is functional, organism-based.
Data set [25] deals with Toxoplasma gondii. In words: Anti-bradyzoite activity against Toxoplasma gondii ESG reporter strain infected in NHDF cells assessed as cell lysis at 2 uM measured after 21 days. Conditions: time 21.0 day. The class given is functional, organism-based.
Data set [26] deals with Toxoplasma gondii. In words: Anti-tachyzoite activity against RFP-expressing Toxoplasma gondii RH Type 1 infected in NHDF cells assessed as plaque formation at 2 uM incubated for 96 hrs followed by removal of medium containing compounds and subsequent addition of fresh medium without compounds and measured after 8 days by crystal violet staining based optical microscopic analysis. The class given is functional, organism-based.

The subject of data set [27] is Toxoplasma gondii. The experiment in a line: Anti-tachyzoite activity against RFP-expressing Toxoplasma gondii RH Type 1 infected in NHDF cells assessed as plaque formation at 4 uM incubated for 96 hrs followed by removal of medium containing compounds and subsequent addition of fresh medium without compounds and measured after 8 days by crystal violet staining based optical microscopic analysis. The class given is functional, organism-based.

For data set [28], the system named is Toxoplasma gondii. In words: Induction of stage conversion in Toxoplasma gondii ESG reporter strain at 2 uM. The class given is functional, organism-based.
Data set [29] relates to Toxoplasma gondii. In words: Induction of stage conversion in Toxoplasma gondii ESG reporter strain at 4 uM. The class given is functional, organism-based.
Data set [30] deals with Toxoplasma gondii. In words: Anti-bradyzoite activity against Toxoplasma gondii ESG reporter strain infected in NHDF cells assessed as increase in BAG-positive vacuole number at 2 uM pretreated with PYR for 3 days followed by compound treatment and further incubated for 4 days. The class given is functional, organism-based. Conditions: time 4.0 day.
Data set [31] deals with Toxoplasma gondii. The experiment in a line: Anti-bradyzoite activity against Toxoplasma gondii ESG reporter strain infected in NHDF cells assessed as induced cyst formation at 2 uM measured after 5 days under alkaline condition by TEM analysis. Conditions: time 5.0 day. The class given is functional, organism-based.
Data set [32] relates to Toxoplasma gondii. The experiment in a line: Anti-bradyzoite activity against Toxoplasma gondii ESG reporter stain infected in NHDF cells assessed as viable cells recovery causing host cell lysis at 2 uM measured after 15 days by optical microscopic analysis. Conditions: time 15.0 day. The class given is functional, organism-based.
In data set [33] the test system is Toxoplasma gondii. In words: Anti-bradyzoite activity against Toxoplasma gondii ESG reporter stain infected in NHDF cells assessed as parasite proliferation at 4 uM measured after 30 days by optical microscopic analysis. The class given is functional, organism-based. Conditions: time 30.0 day.

As a reminder, the CC50 is the concentration that lowers cell viability or growth by half. As to `N#Cc1cccc(Nc2ccc3ccc4cccnc4c3n2)c1`, the figures for the EC50 in data set [1] and in data set [2] were 240 nM and 310 nM, respectively. For the same compound, in [3], the CC50 at 96 h is 30.5 µM. Further, the selectivity ratio in [4] is 98. Also, the result in data set [5], in [6], in [7], in data set [8] and in data set [9] was Active.
Consider `Fc1cccc(Nc2ccc3ccc4cccnc4c3n2)c1`, for which the EC50 was determined as 270 nM in data set [1] and 330 nM in data set [2]. Besides, in data set [3], the CC50 at 96 h is 24.9 µM. In addition, the selectivity ratio in [4] came to 75. The outcome in data set [10], in data set [8], in data set [11], in [12], in [13] and in [14] was Active. Moreover, the outcome in data set [15] was Active. In addition, in data set [16], the outcome was inactive.
Turning to `COc1cccc(Nc2ccc3ccc4cccnc4c3n2)c1`, the EC50 in data set [1] was determined as 250 nM; in [2] it was 340 nM. The CC50 at 96 h in data set [3] stood at 37.7 µM. In [4], the selectivity ratio was found to be 111. The outcome in data set [17], in [10], in data set [13] and in data set [15] was Active. Also, in data set [16], the outcome was inactive.
Take `COc1ccc(Nc2ccc3ccc4cccnc4c3n2)cc1`: the EC50 in data set [1] amounted to 310 nM; in data set [2] it was 290 nM. The CC50 at 96 h in data set [3] stood at 18.4 µM. Also, in data set [4], the selectivity ratio was found to be 63. In addition, the result in data set [17], in [10], in data set [13] and in data set [18] was Active. The outcome in data set [16] was inactive.
Consider `O=C1C(O)=C([C@H]2CC[C@H](c3ccc(Cl)cc3)CC2)C(=O)c2ccccc21`, for which the result in data set [19], in data set [20], in [21], in data set [9], in data set [22] and in data set [23] was Active. For the same compound, in data set [24], the outcome was Active.
With `c1cnc2c(c1)ccc1cccnc12` [PHENANTHROLINE], the EC50 in data set [1] was determined as 2010 nM; in data set [2], 2280 nM. The cytotoxic concentration (CC50) at 96 h in data set [3] came to 70.2 µM. In addition, in data set [4], the selectivity ratio turned out to be 31. For the same compound, the result in [25] was Active.
As for `c1ccc(Nc2ccc3ccc4cccnc4c3n2)cc1`, the EC50 amounted to 530 nM in data set [1] and 670 nM in data set [2]. The CC50 at 96 h in [3] is 34.6 µM. In addition, the selectivity ratio in data set [4] is 73. Besides, the result in data set [13] was Active.
With `Fc1ccc(Nc2ccc3ccc4cccnc4c3n2)cc1`, the EC50 in data set [1] stood at 250 nM; in data set [2], 310 nM. Besides, the CC50 at 96 h in data set [3] came out at 26.9 µM. Besides, the selectivity ratio in [4] was found to be 96. In addition, the result in data set [7], in data set [17] and in data set [10] was Active. Moreover, the result in data set [16] was inactive.
Turning to `Clc1cccc(Nc2ccc3ccc4cccnc4c3n2)c1`, the EC50 in data set [1] was 360 nM; in [2] it was 580 nM. Further, the CC50 at 96 h in data set [3] was 24.9 µM. For the same compound, the selectivity ratio in data set [4] is 42. In addition, the outcome in [10], in data set [8], in data set [11], in [12], in data set [13] and in data set [14] was Active. In addition, the outcome in data set [15] and in data set [18] was Active. Also, the result in [16] was inactive.
Take `CCc1nc(N)nc(N)c1-c1ccc(Cl)cc1`: the outcome in data set [19], in data set [26], in data set [27], in data set [20], in data set [28] and in [29] was Active. The result in data set [30], in data set [25], in [31], in data set [32] and in data set [33] was Active.
